Assay results from patent publication US6902740B2, “Pyrrolidonoethyl (meth)acrylate containing pressure sensitive adhesive compositions” (3M Innovative Properties Company, priority 2001, dated 2005).

Key:
[1] = Accelerated drug solubility method (seeded crystal growth) in pressure sensitive adhesive; type: physicochemical
Protocol: The solubility of several drugs in IOA/PyEA 60/40 pressure sensitive adhesive copolymer was determined using an accelerated method which is described in detail below. Drug solubility in an IOA pressure sensitive adhesive homopolymer was used for comparison purposes.
In the accelerated drug solubility method, drug and pressure sensitive adhesive mixtures are made up over a wide range of drug concentrations and then these mixtures are seeded on their surface with pure drug crystal. If the crystals grow over time (typically one week) then the mixture is above the saturation concentration.
Separate stock solutions containing pressure sensitive adhesive in ethyl acetate and drug in a suitable solvent such as ethyl acetate or acetonitrile are prepared. The stock solutions are used to prepare 3 gram batches of drug and pressure sensitive adhesive solution. The amount of each stock solution needed is determined using the following equations, [formula] [formula] where: • C is the desired concentration of drug in pressure sensitive adhesive after solvent removal; • CDS is the concentration of drug in the drug stock solution; • CPS is the concentration of pressure sensitive adhesive in the polymer stock solution; • WDS is the weight in grams of drug stock solution; and • WPS is the weight in grams of pressure sensitive adhesive stock solution.
The calculated amounts of drug stock solution and pressure sensitive adhesive stock solution are combined in a glass vial. The vial is capped then shaken to provide a homogeneous solution.
Under a nitrogen atmosphere (e.g., in a glove box) individual drops of the drug and pressure sensitive adhesive solution are placed on a microscope slide and allowed to dry. Additional drops of solution are applied to each original spot until the spot is covered. The second application is allowed to dry. Applications are continued until a 2-3 mil (51-76 μm) layer has been built up. After the final application the slide is allowed to sit in the nitrogen atmosphere for at least 10 minutes.
The slide is removed from the nitrogen atmosphere and seeded with a very tiny amount of dry crystalline drug. A photomicrograph is taken to document the initial appearance of the crystalline “seeds”. Periodically (e.g., daily or weekly) additional photomicrographs are taken and compared with earlier photomicrographs to determine if seed crystal growth or seed crystal absorption is occurring.
The results are usually reported as a range. The low value indicates the highest concentration sample where no crystal growth is observed. The high value indicates the lowest concentration where crystal growth is observed. In some instances additional work may be performed to narrow the range to a single value.

[2] = Lerisetron solubility in PSA by absorption from receptor solution; type: physicochemical
Protocol: The solubility of the drug lerisetron in two PSAs was determined by measurement of absorption of the drug into the pressure sensitive adhesive in a heterogeneous system. Lerisetron was dissolved in a receptor solution of HBSS buffer/ethanol (85:15 w:w) to give an initial concentration of 7.94 mg/10 mL. The 100% saturation concentration of lerisetron in the receptor solution is 9.93 mg/10 mL. A defined weight of pressure sensitive adhesive was added to 10 mL of receptor solution and the receptor solution was stirred for 4 hours. After the 4 hours of stirring, the concentration of lerisetron in the receptor solution was measured using standard HPLC techniques. The difference in the initial amount of lerisetron and the final amount of lerisetron in the solution is assumed to have been absorbed by the pressure sensitive adhesive. A partition coefficient between the receptor solution and pressure sensitive adhesive can be calculated. The solubility of lerisetron in the pressure sensitive adhesive can subsequently be determined based on the partition coefficient and the previously determined solubility of lerisetron in the receptor solution.

[3] = in IOA homopolymer (comparison)

Row | SMILES | Drug Solubility in Pressure Sensitive Adhesive Copolymer [1, 3] | Drug Solubility in Pressure Sensitive Adhesive Copolymer ([1]; in IOA/PyEA 60/40) | Lerisetron solubility in pressure sensitive adhesive ([2]; in Isooctyl Acrylate/Pyrrolidonoethyl Acrylate/Polymethyl Methacrylate Macromonomer (59/39/2)) [%] | Lerisetron solubility in pressure sensitive adhesive ([2]; in Isooctyl Acrylate/Pyrrolidonoethyl Acrylate/Polymethyl Methacrylate Macromonomer (73/25/2)) [%] | Lerisetron solubility in pressure sensitive adhesive ([2]; in control Isooctyl Acrylate/N-vinyl pyrrolidone/Polymethyl Methacrylate Macromonomer (77/20/3))
1 | CN1CCC(=C2c3ccccc3C=Cc3ccccc32)CC1 [Cyproheptadine] | 5-6 g drug/100 g pressure sensitive adhesive copolymer | 10-15 g drug/100 g pressure sensitive adhesive copolymer | – | – | –
2 | c1ccc(Cn2c(N3CCNCC3)nc3ccccc32)cc1 [Lerisetron, lerisetron] | – | – | 7 | 3 | less than 1%
3 | C[C@]12CC[C@H]3[C@@H](CCC4=CC(=O)CC[C@@]43C)[C@@H]1CC[C@@H]2O [Testosterone] | 0.5 g drug/100 g pressure sensitive adhesive copolymer | 4 g drug/100 g pressure sensitive adhesive copolymer | – | – | –
